Results on 19 compounds are retold here after ChEMBL document CHEMBL3621075, “Discovery of benzothiazine derivatives as novel, orally-active anti-epileptic drug candidates with broad anticonvulsant effect” (Bioorg Med Chem Lett, 2015).

As usually defined, the ED50 is the dose at which the effect has come halfway, by size or by number of responders.

Structures are written as SMILES. Calls of active or inactive are those of the source. Some results are limits rather than exact numbers.

Data set [1] is filed under the species Mus musculus. Briefly: Anticonvulsant activity in mouse assessed as protection against maximal electroshock-induced seizure. The class given is functional. On the technique in general: The maximal electroshock test induces tonic seizures with an electrical stimulus.
The subject of data set [2] is Mus musculus. Briefly: Anticonvulsant activity in ip-dosed mouse assessed as protection against subcutaneous pentylenetetrazol-induced seizure. The following applies: sc. The data set is classed as functional.
Data set [3] can be described thus: Metabolic stability in rat liver microsome assessed as recovery of parent compound after 30 mins in presence NADPH. The class given is ADME. To be noted: liver microsomes, read-out: Drug recovery.
Data set [4] is described as follows: Permeability of compound at pH 7.4 by PAMPA assay. The data set is classed as physicochemical. To be noted: read-out: permeability. A general note: PAMPA measures passive passage across an artificial lipid membrane.
The test system of data set [5] is Mus musculus. Briefly: Anticonvulsant activity in mouse assessed as protection against maximal electroshock-induced seizure at 100 mg/kg. The data set is classed as functional, organism-based.
Data set [6] is described as follows: Permeability of compound at pH 5.0 by PAMPA assay. The class given is physicochemical. To be noted: read-out: permeability.
The test system of data set [7] is Mus musculus. Briefly: Anticonvulsant activity in mouse assessed as protection against maximal electroshock-induced seizure at 400 mg/kg. The data set is classed as functional, organism-based.
Data set [8] deals with Mus musculus. The data set can be described thus: Anticonvulsant activity in mouse assessed as protection against subcutaneous pentylenetetrazol-induced seizure at 400 mg/kg. The class given is functional, organism-based.
The subject of data set [9] is Rattus norvegicus. The data set can be described thus: Anticonvulsant activity in rat amygdala kindling model assessed as change in after-discharge duration at 100 mg/kg, po. The class given is functional.
For data set [10], the system named is Mus musculus. Briefly: Anticonvulsant activity in mouse assessed as protection against maximal electroshock-induced seizure at 25 mg/kg. The class given is functional, organism-based.
Data set [11] deals with Rattus norvegicus. Briefly: Anticonvulsant activity in rat amygdala kindling model assessed as change in after-discharge threshold at 100 mg/kg, po. The class given is functional.
Data set [12] relates to Mus musculus. The data set can be described thus: Anticonvulsant activity in mouse assessed as protection against maximal electroshock-induced seizure at 50 mg/kg. The class given is functional, organism-based.
Data set [13] concerns Rattus norvegicus. The data set can be described thus: Anticonvulsant activity in rat amygdala kindling model assessed as change in after-discharge threshold at 30 mg/kg, po. The data set is classed as functional.
In data set [14] the test system is Mus musculus. The data set can be described thus: Anticonvulsant activity in mouse assessed as protection against subcutaneous pentylenetetrazol-induced seizure at 100 mg/kg. The class given is functional, organism-based.
Data set [15] has as its system Rattus norvegicus. Briefly: Anticonvulsant activity in rat amygdala kindling model assessed as change in after-discharge duration at 30 mg/kg, po. The data set is classed as functional.
For data set [16], the system named is Rattus norvegicus. The data set can be described thus: Anticonvulsant activity in rat amygdala kindling model assessed as decrease in rearing and bilateral forelimb clonus seizure 100 mg/kg, po. The data set is classed as functional, organism-based.

Consider `O=C1NC(=O)C(c2ccccc2)(c2ccccc2)N1` [PHENYTOIN], for which the ED50 was 8 mg/kg in data set [1] and above 300 mg/kg in [2].

Consider `CN1C(C(=O)NC2CC2)=Cc2ccccc2S1(=O)=O`, for which the remaining at 0.5 h in [3] was above 90%. Besides, the Papp in [4] and in data set [6] was 5.9 ×10⁻⁶ cm/s each time. The result in data set [5], in data set [7] and in data set [8] was Active.

Take `CN1C(C(=O)NC2CC2)=C(C2CC2)c2ccccc2S1(=O)=O`: in data set [3], the remaining at 0.5 h was above 90%. Moreover, the Papp in [4] and in [6] was 12 ×10⁻⁶ cm/s each time. The outcome in data set [7] was Active.

With `CCN1C(C(=O)NC2CC2)=C(Cl)c2ccccc2S1(=O)=O`, the outcome in data set [7] was Active.

As to `NC(=O)N1c2ccccc2C=Cc2ccccc21` [CARBAMAZEPINE], the ED50 in data set [1] is 13 mg/kg; in [2], above 100 mg/kg.

For the compound `CC1=C(C(=O)NC2CC2)N(C)S(=O)(=O)c2ccccc21`, in data set [3], the remaining at 0.5 h is above 90%. Moreover, the Papp in data set [4] and in data set [6] was 12 ×10⁻⁶ cm/s throughout. Also, the result in data set [5] was inactive. Moreover, the outcome in data set [7] was Active.

For the compound `CN1C(C(=O)NC2CC2)=C(Cl)c2ccccc2S1(=O)=O`, the remaining at 0.5 h in data set [3] was above 90%. Moreover, the Papp in data set [4] and in [6] was 12 ×10⁻⁶ cm/s each time. For the same compound, the outcome in data set [7] was Active.

Turning to `CCNC(=O)C1=Cc2ccccc2S(=O)(=O)N1C`, in data set [3], the remaining at 0.5 h was above 90%. Moreover, the Papp in data set [4] and in [6] was 5.9 ×10⁻⁶ cm/s throughout. In addition, the result in [7] and in [8] was Active.

Take `CN1C(C(=O)NCC(F)F)=Cc2ccccc2S1(=O)=O`: the result in [7] was Active.

`CCNC(=O)C1=C(Cl)c2ccccc2S(=O)(=O)N1C`: the Activity in [9] is -18.2%; in data set [11], 40.5%; in data set [13], 10%; in data set [15], -20%. For the same compound, the outcome in [10] was inactive. The outcome in data set [5], in data set [12], in [14] and in data set [16] was Active.

For `CC(=O)NCCNC(=O)C1=Cc2ccccc2S(=O)(=O)N1C`, the result in data set [7] was inactive.

In the case of `CN(C)C(=O)C1=Cc2ccccc2S(=O)(=O)N1C`, in data set [7], the result was Active.

With `CCC1=C(C(=O)NC2CC2)N(C)S(=O)(=O)c2ccccc21`, in data set [7], the outcome was Active.

As to `NS(=O)(=O)Cc1noc2ccccc12` [ZONISAMIDE], the ED50 in data set [1] is 20 mg/kg; in data set [2], above 500 mg/kg. Besides, the Activity in [9] is given as -37.6%; in [11], 45.9%; in [13], 5.1%; in [15] it was 7%.

For `CC(C)NC(=O)C1=Cc2ccccc2S(=O)(=O)N1C`, the outcome in [5] and in data set [14] was inactive. For the same compound, the result in data set [7] was Active.

As to `CCCNC(=O)C1=Cc2ccccc2S(=O)(=O)N1C`, in [3], the remaining at 0.5 h was above 90%. Further, the Papp in [4] and in [6] was 5.9 ×10⁻⁶ cm/s throughout. The result in [12] was inactive. Moreover, the result in [7] and in [8] was Active.

With `O=C(NC1CC1)C1=C(Cl)c2ccccc2S(=O)(=O)N1Cc1ccccc1`, the outcome in data set [7] was inactive.

Consider `CNC(=O)C1=Cc2ccccc2S(=O)(=O)N1C`, for which the remaining at 0.5 h in data set [3] is above 90%. For the same compound, the Papp in data set [4] and in data set [6] was 5.9 ×10⁻⁶ cm/s throughout. Besides, the result in [7] was Active.

As for `CN1C(C(=O)NC2CC2)=C(c2ccccc2)c2ccccc2S1(=O)=O`, the result in [8] was inactive.
